SMILES strings stand for the structures.

The nature of assay [1]: In vitro melanin binding by microscale thermophoresis / initial fluorescence (Monolith NT.115 pico). Put shortly: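 Microscale thermophoresis with 30 s heating in expert mode; binding taken from normalized fluorescence or from the ratio of relative fluorescence after heating. Ligands were excluded if autofluorescence reached 20% of melanin fluorescence, or if aggregation or capillary adsorption occurred.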

Assay [2] addresses T1, human carbonic anhydrase II (Homo sapiens, UniProt P00918).
T1 construct: purchased Sigma
In words: Multiparametric surface plasmon resonance (MP-SPR) interaction kinetics with immobilized hCAII. To be noted: MP-SPR, 25 °C, 1:1 model. The assay is classed as binding. Here is the method:
All MP-SPR measurements were conducted at 25 °C using carboxymethyl dextran hydrogel-coated (CMD-3DM) sensors (BioNavis) and were based on the protocol described by Rogez-Florent et al.[22]
Human carbonic anhydrase isoenzyme II (Sigma) was immobilized using a standard amine coupling procedure with the Amine Coupling Kit (BioNavis) and phosphate buffered saline (PBS) (20 mM phosphate buffer, 150 mM NaCl, pH 7.4) as the background buffer. Before immobilization, the sensor surface was cleaned with 2 M sodium chloride and 10 mM sodium hydroxide for 6 min at a flow rate of 30 μL/min. Then, a constant flow rate of 10 μL/min was maintained throughout the immobilization steps. The surface was activated for 7 min with 200 mM 1-ethyl-3-(3-(dimethylamino)propyl)-carbodiimide (EDC) and 50 mM N-hydroxysuccinimide, immediately followed by a 5 min injection of 45 μg/mL hCAII solution in 10 mM acetate buffer, pH 5.5. In the reference flow channel, no enzyme was immobilized. Residual activated groups of the dextran matrix were deactivated by a 7 min injection of 1 M ethanolamine HCl, pH 8.3.
For analyzing CAIs, 1% (v/v) DMSO in PBS, pH 7.4, was used as a running buffer. All CAIs were dissolved in 100% DMSO and stored as 50 mM stock solutions. These stock solutions were further diluted with the running buffer and analyzed using a 3-fold (3–1000 nM) dilution series. […] Each analyte was injected at a flow rate of 100 μL/min, with an association time of 2 min and a dissociation time of 10 min. […] Seven concentrations were measured for each CAI per cycle, and a “wash all” step with running buffer was performed at the end of each cycle to minimize the carry over effects. Each CAI were assayed in triplicate across three independent experiments.
The acquired data were processed using MP-SPR Navi Data Viewer software (version 6.7.0.1, BioNavis) employing the weighted centroid method for determining the SPR peak angular position. Signals from the reference flow channel were subtracted from the corresponding signals of the flow channel containing immobilized hCAII. The moment of sample injection was selected as the zero-time point, where both the time and MP-SPR response were set to zero. Processed data were globally fitted to a simple 1:1 interaction model using TraceDrawer software (version 1.9.2, Ridgeview Instruments AB, Sweden) to obtain kinetic parameters.

Assay [3] has as its system albino rabbits (New Zealand White). In words: IOP study in albino rabbits after single eye drop. The assay is classed as in vivo, rabbit. The note with it: single 25 μL eye drop; CAI 0.5 or 1.0%, dorzolamide 2%; n = 5. Here is the method:
Five 3–5 months old albino (New Zealand White, all females) and five 3–6 months old pigmented rabbits (Chinchilla Bastard, 1 male and 4 females) were purchased from Charles River Laboratories, UK and Germany, respectively. Prior to the experiments, the rabbits were habituated to handling, and the baseline values of IOP were measured. During the experiments, rabbits weighed 2.4–4.0 kg.
First, stock solutions of CAIs (250 mg/mL) in dimethyl sulfoxide (Sigma-Aldrich, Germany) were prepared. These stock solutions were diluted with PBS (pH 7.4) to obtain 1 mg/mL (0.1%) or 10 mg/mL (1%) solutions. Water-solubility of the compounds was enhanced with 2-hydroxypropyl-β-cyclodextrin (Sigma-Aldrich, Germany) (Table 1).
The CAI solutions were tested in albino rabbits (eye drops of 0.1, and 0.5 or 1.0%) and in pigmented rabbits (0.5 or 1.0%). The novel CAI concentrations in solutions were determined based on the drug solubility with the aim to load the highest possible drug concentration to the single eye drop.
The IOP levels in the rabbits were measured with a tonometer (Tonometer Pro, Icare Finland Ltd.). After baseline IOP measurements, a single eye drop (25 μL) was applied to the left eye, whereas the right eye was not treated. After eye drop instillation, the eyelids were kept open manually for 1 min. The IOP was measured from both eyes of the rabbits at 0.5, 1, 2, 3, 4, 5, 6, 7, and 8 h after eye drop instillation. In the case of the pigmented rabbits, the measurements were continued until 10 h postinstillation, and further until the IOP had returned to the normal baseline.
The CAIs were tested in the same rabbits to minimize interindividual data variation. Washout periods of at least 3 days were used between instillation of different compounds. The experiments started always at 8 a.m. to eliminate bias due to diurnal IOP fluctuation. At each time point, the pressure was measured three times with the same eye, and the average values were calculated and used in data analysis.

On to `C/C(=N\Nc1ccc(S(N)(=O)=O)cc1)c1cccnc1` [A01], for which the Melanin binding classification entry in assay [1] (class by Kd) is “high (high (<65 μM))”. Also, the Kd in assay [1] (melanin nanoparticles 0.5 mg/mL, IF or MST mode, 68% confidence, read-out: Kd ± confidence (melanin binding)) was 48 ± 13 µM; in assay [2] (read-out: KD), 0.0369 ± 0.0234 µM. Besides, the ka in assay [2] is 0.57 ± 0.33 10^6 M^–1 s^–1. For the same molecule, the kd in assay [2] is 1.45 ± 0.15 10^–2 s^–1. The “AUC0-last ± SD in albino rabbits (IOP decrease vs time)” value in assay [3] was determined as 19.95 ± 7.16 mmHg x h.

A word on the Kd: it is the constant that tells how readily two partners part at equilibrium.

These data come from PMC11795524, “Melanin-Binding-Based Discovery of Topically Instilled Carbonic Anhydrase Inhibitors for Targeted Delivery and Prolonged Action in the Eye” (Molecular Pharmaceutics, 2025).
